# Patent publication US12084459B2, “2-(4-{1-[6-(4-isopropyl-phenyl)-imidazo[2,1-b][1,3,4]thiadiazol-2-yl]-piperidin-4-ylmethyl}-piperazin-1-yl)-ethanol and use thereof” (Urifer Ltd., priority 2020, dated 2024)
# Columns and labels:
# [1] = insolubility level in PBS/Polysorbate-80 (Tween 80) solution; type: physicochemical; settings: 0.5 mM and 1 mM in PBS/Polysorbate-80 (Tween 80) solution at 25° C. (FIG. 1A, 1B)
# [2] = system: normal Epithelial cells; assay: effect on normal epithelial cells; type: cell-based; settings: FIG. 2
# Method: Compound (I) was dissolved in 20% hydroxypropylcyclodextrane and the volume of administration (IP) was 10 ml/kg.
# [3] = system: H358 derived xenografts; assay: H358 derived xenografts in Nude mice; type: in vivo; settings: 25 mg/kg daily intraperitoneal in 1% Tween 80, H358 xenografts, FIG. 7
# Text: In vivo activity of the E266 (compound (I) of the present application) compared to that of the E260 (EP 2401283) in H358 derived xenografts in immune-compromised (Nude) mice.
# In order to compare the relative efficacy of E266 and E260 in inhibiting the development and progression of malignant tumors in-vivo, the activity in xenograft model in mice was examined for both compounds. H358 derived xenografts in immune-compromised were elicited in (Nude) mice. The H358 cells, which are metastatic bronchioloalveolar carcinoma (BAC)-non-small cell lung cancer (NSCLC) cells, were subcutaneously injected to the back of the nude mice. When the developing xenografts reached 100 mm^3 size, the inflicted animals were divided into three groups, 10 mice in each group. One group received daily intraperitoneal injection of the solvent 1% Tween 80. This solvent/emulsifier is biocompatible and is approved for pharmaceutical applications in humans. The second group received daily intraperitoneal injection of 25 mg/kg E260 dissolved in 1% Tween 80, and the third group got daily intraperitoneal injection of 25 mg/kg, E266 dissolved in the 1% Tween 80, solvent. The progression of the elicited xenografts was monitored by measuring twice a week the volumes of the developing tumors.
compound,measurement,setting,value
"CC(C)c1ccc(-c2cn3nc(N4CCC(CN5CCN(CCO)CC5)CC4)sc3n2)cc1 [Compound E266, 2-(4-{1-[6-(4-isopropyl-phenyl)-imidazo[2,1-b][1,3,4]thiadiazol-2-yl]-piperidin-4-ylmethyl}-piperazin-1-yl)-ethanol]",solubility (insolubility level),[1],soluble to a certain extent
same,effect on normal Epithelial cells,[2],no effect
same,progression of the developing tumors (xenograft volume),[3],managed to halt the progression of the developing tumors
